Source: patent publication US6497862B2, “Composition for inhibiting body odor and uses thereof” (Kabushiki Kaisha Hayashibara, priority 2000, dated 2002)

Tests used:
[1] = Formation of 2-nonenal from linoleic acid by heating, GC of HSG (Experiment 2); conditions: linoleic acid + 100 mg test saccharide, heated at 105° C. for one hour; control 5.75
Description: One hundred milligrams of oleic acid as a fatty acid, 500 mg of cellulose powder, and 1.25 ml of 0.12 M phosphate buffer (pH 6.0) were placed in a 20-ml glass vial. To the glass vial were added 100 mg of either of crystalline trehalose hydrate, crystalline maltitol anhydride, crystalline sorbitol anhydride, crystalline sucrose anhydride, crystalline maltose anhydride, and crystalline neotrehalose hydride as test saccharides (throughout Experiments 1 to 6, these saccharides are designated as “trehalose”, “maltitol”, sorbitol”, “sucrose”, “maltose”, and “neotrehalose”, respectively), followed by sealing the glass vial with a butyl rubber. As a control system, there provided a glass vial, with no a test saccharide, which differed from the test glass vial on this point. These glass vials were heated at 105° C. for one hour, cooled to ambient temperature, and kept in an aluminum heat-block (abbreviated as “heat block, hereinafter”), which had been preheated to 80° C. After 5-minutes standing, two milliliters of a head space gas (abbreviated as “HSG”, hereinafter) were collected from each glass vial with a syringe.
The collected HSG was analyzed for content of volatile aldehydes on gas chromatography (abbreviated as “GC” hereinafter) using “GAS CHROMATOGRAPH GC-14A”, as a GC apparatus; “CAPILLARY COLUMN SUPELCO-WAX”, having 0.25 mm in inner diameter, 60 m in length, and 0.25 μm in thickness, commercialized by Supelco Inc., Tokyo, Japan, as a column for analysis; helium gas at a flow rate of one ml/min as a carrier gas, under temperature conditions of 250° C. for injecting a sample and of a column thermostatic bath temperature being kept at 80° C. for five minutes and then increased up to 240° C. at a rate of 5° C./min. As standard specimens, propanal, butanal, and hexanal as volatile aldehydes were used. Based on the peak area obtained from gas chromatography for the standard specimens and HSG samples, the content of respective volatile aldehydes in HSG was calculated.
(§1) The content of 2-nonenal in HSG was measured by GC similarly as in Experiment 1 except that linoleic acid was used as a fatty acid and 2-nonenal, a volatile aldehyde, was used as a standard substance. The level of a body-odor-like smell, particularly with respect to KAREI-SHU, in each sample was evaluated by panel test in accordance with the method in Experiment 1.

[2] = Panel test of body-odor-like smell (KAREI-SHU), linoleic acid heated (Experiment 2); set-up: key: +++: the same or higher level of odor; ++: slightly lower level of odor; +: clearly lower level of odor than that of the control system; conditions: compared with control system
Text: Upon the HSG samples, the level of a body-odor-like smell was examined on a panel test consisting of six professional panels; the panels directly smelled the samples from each glass vial and judged the level of the smells for each samples with test saccharides based on the following four ranks, i.e., the same or higher level of odor (+++), slightly lower level of odor (++), clearly lower level of odor (+), and odorless (−) as compared with the control system. Summing up the data from the panels, the samples tested were totally evaluated.
as §1

[3] = Decomposition of fatty acids by heating, linoleic acid (Experiment 5); conditions: heated at 105° C. for one hour with 100 mg test saccharide; control 60.0
Description: One hundred milligrams of linoleic acid or 9-hexadecanoic acid as a fatty acid, 500 mg of a cellulose powder, and 1.25 ml of 0.12 M phosphate buffer (pH 6.0) were placed in a 20-ml glass vial. To the glass vial was added 100 mg of either of trehalose, maltitol and sucrose as a test saccharide, followed by sealing with a butyl rubber cap. As a control system, there provided a glass vial with no test saccharide that differed from the test systems only in this point. These vials were heated at 105° C. for one hour. Another glass vial with no heat treatment, which contained the same ingredients as shown in the above, was provided that differed from the test systems only in that it had no heat treatment.
The above test systems with or without heat treatment and the control system were subjected to the following methyl esterification reaction and analyzed on GC to measure the content of fatty acids; To each glass vial was added 20 ml of a mixture solution of chloroform and methanol (=2:1 by volume) to extract fatty acids, and one milliliter of each resulting extract was collected in a 10-ml eggplant-shape flask, concentrated, and dried in vacuo. […]
Two microliters of each of the resulting n-hexane layers were analyzed on GC using “GAS CHROMATOGRAPH GC-14A”, a GC apparatus, commercialized by Shimadzu Corporation, Tokyo, Japan; and “CAPILLARY COLUMN FFAP”, an analysis column having an inner diameter of 0.25 mm, a length of 30 m, and a membrane thickness of 0.25 μm, commercialized by GL Sciences Inc., Tokyo, Japan, under the conditions of using helium gas as a carrier at a flow rate of 1 ml/min, at a temperature of 250° C. as a sample injection temperature, a column thermostatic bath temperature being kept at 80° C. for five minutes and then increased up to 240° C. at a rate of 5° C./min, and a hydrogen flame ionization detector for detecting fatty acids. Based on the peak area of the obtained gas chromatograms, it was calculated the content of fatty acids, i.e., linoleic acid and 9-hexadecanoic acid, before or after the heat treatment in the test- and control-systems. […]

[4] = Formation of 2-nonenal from 9-hexadecanoic acid at the temperature of human body, GC of HSG (Experiment 6); conditions: 37° C., 9,000 lux
Description: One hundred milligrams of 9-hexadecanoic acid as a fatty acid, 500 mg of a cellulose powder, and 1.25 ml of 0.12 M phosphate buffer (pH 6.0) were placed in a 20-ml glass vial. To the glass vial was added 100 mg of either of trehalose, maltitol and sucrose as a test saccharide, followed by sealing with a butyl rubber cap for use as a test system. As a control system, there provided a glass vial with no test saccharide that differed from the test systems only in this point. In both the test- and control-systems, they were respectively provided in doublet.
These glass vials were allowed to stand in a 37° C.-thermostatic-bath under the irradiation of 9,000 lux by a fluorescent lamp. At 3-days of standing, one of each pair of the vials containing the same composition, and 7-days of standing, the other vial of each resting pair of the vials were transferred to a heat block, which had been preheated to 80° C. and then kept therein for five minutes, followed by analyzing the content of 2-nonenal in HSG in each vial by GC similarly as in Experiment 2. After the collection of HSG, the smell from glass vials was evaluated by panel test in accordance with the method in Experiment 2.

[5] = 3-days of standing, control 0.03
[6] = 7-days of standing, control 16.8

OC[C@H]1O[C@@](CO)(O[C@H]2O[C@H](CO)[C@@H](O)[C@H](O)[C@H]2O)[C@@H](O)[C@@H]1O [Sucrose, sucrose]
Content of 2-nonenal in HSG [1]: 5.41 µg/mL
Evaluation of panel test [2]: +++
Decomposition percentage, Linoleic acid [3]: 58.0%
Content of 2-nonenal in HSG [4, 5]: 0.26 µg/mL
Content of 2-nonenal in HSG [4, 6]: 16.4 µg/mL

OC[C@@H](O)[C@@H](O[C@H]1O[C@H](CO)[C@@H](O)[C@H](O)[C@H]1O)[C@H](O)[C@@H](O)CO [Maltitol, maltitol]
Content of 2-nonenal in HSG [1]: 1.73 µg/mL
Evaluation of panel test [2]: +
Decomposition percentage, Linoleic acid [3]: 33.4%
Content of 2-nonenal in HSG [4, 5]: 0.00 µg/mL
Content of 2-nonenal in HSG [4, 6]: 2.77 µg/mL

OC[C@H]1O[C@H](O[C@H]2O[C@H](CO)[C@@H](O)[C@H](O)[C@H]2O)[C@H](O)[C@@H](O)[C@@H]1O [Trehalose, trehalose]
Content of 2-nonenal in HSG [1]: 1.27 µg/mL
Evaluation of panel test [2]: +
Decomposition percentage, Linoleic acid [3]: 25.2%
Content of 2-nonenal in HSG [4, 5]: 0.00 µg/mL
Content of 2-nonenal in HSG [4, 6]: 2.64 µg/mL
